Values of other authors in patent US20170239455A1 (priority 2014, published 2017).

Tested on: virus Ebola

II [molecular iodine]
effectiveness against the virus: effective
